Measured values taken from US10781182B2, “Compounds, process for obtaining the compounds, pharmaceutical composition, use of the compounds and method for treating psychiatric disorders and/or sleep disorders” (ACHÉ LABORATÓRIOS FARMACÊUTICOS S.A., priority 2016, dated 2020).
In brackets after ≈: the same amount, converted by molar mass.

Key:
[1] = conjugate acid, J. Org. Chem. 1961; cited from earlier work
[2] = system: rat hepatocytes (Sprague-Dawley males); experiment: Intrinsic clearance in cryopreserved rat hepatocytes; format: in vitro ADME
Description: (§1) Cryopreserved hepatocytes from humans, rats (Sprague-Dawley males) and from mice (CD-1 males) were used for incubation at different times (0, 0.5, 1, 1.5, 2 hours) at 37° C. followed by HPLC-MS/MS detection. The aim was to verify the clearance time of the test substance on hepatocytes. The experiment was performed on a 96-well plate and the cryopreserved hepatocytes were thawed and resuspended in Krebs-Heinslet buffer(pH 7.3). The reaction was started by adding each test compound to each cell suspension and performing the incubation at the times indicated above. The reaction was quenched with addition of acetonitrile in the wells and detection by HPLC-MS/MS (mass spectrometry). MS/MS is performed by combining two mass detectors into a single instrument.

CYP2B6 = CYP2B6 (Homo sapiens (Human), UniProt P20813); experiment: CYP inhibition, fluorogenic substrate; format: in vitro ADME; parameters: dose or concentration left out as unconfirmed; conditions: recombinant CYP2B6, pH 7.4
From the text: (§2) The CYP inhibition test used fluorogenic substrates specific to each CYP to check for inhibition thereof by detection of the expected metabolite using a fluorimetric method. Recombinant CYPs (CYP2B6, CYP2C8, […], CYP2C19, CYP2D6, CYP3A4) from specific humans for each cytochrome family, subfamily and polypeptide were used. The following were used as substrates: CEC (3-Cyano-7-Ethoxycoumarin) which forms as metabolite CHC (3-Cyano-7-Hydroxycoumarin); EFC (7-Ethoxy-4-trifluoromethyl coumarin), forming the metabolite HFC (7-Hydroxytri fluoromethylcoumarin); DBF (Dibenzylfluorescein) and its respective fluorescein metabolite; MFC (7-Methoxy-4-trifluoromethylcoumarin) which forms the metabolite HFC (7-Hydroxytrifluoromethylcoumarin); BFC (7-Benzyloxy-Trifluoromethylcoumarin) and its metabolite HFC; and BzRes (benzyloxyresorufin) to form resofurine. The detection of the metabolite was done with a fluorimetric method: analytical technique to identify and characterize the amount of substance by excitation using a beam of ultraviolet light and measurement of the emitted fluorescence. For detection, a 96-well plate was used. Each sample was tested in two wells (n=2) as standard condition. At least 04 wells were separated for vehicle (control). Compounds were tested at a concentration […], standard for this assay. They were preincubated with a NADPH generator system in a phosphate buffer (pH 7.4) for 5 minutes at 37° C. The reaction was started by adding the specific CYP enzymes, substrate and bovine serum albumin (BSA<0.4 mg/ml). Incubations were performed between 20-50 minutes at 37° C. according to the specific parameter of each fluorogenic substrate, for the evaluated component. Fluorescence at each well was detected before and after the incubation period.

CYP2C19 = CYP2C19 (Homo sapiens (Human), UniProt P33261); experiment: CYP inhibition, fluorogenic substrate; format: in vitro ADME; parameters: dose or concentration left out as unconfirmed; conditions: recombinant CYP2C19, pH 7.4
From the text: as §2

CYP2C9 = CYP2C9 (Homo sapiens (Human), UniProt P11712); experiment: CYP inhibition, fluorogenic substrate; format: in vitro ADME; parameters: dose or concentration left out as unconfirmed; conditions: recombinant CYP2C9, pH 7.4
From the text: as §2

CYP2D6 = CYP2D6 (Homo sapiens (Human), UniProt P10635); experiment: CYP inhibition, fluorogenic substrate; format: in vitro ADME; parameters: dose or concentration left out as unconfirmed; conditions: recombinant CYP2D6, pH 7.4
From the text: as §2

CYP2C8 = CYP2C8 (Homo sapiens (Human), UniProt P10632); experiment: CYP inhibition, fluorogenic substrate; format: in vitro ADME; parameters: dose or concentration left out as unconfirmed; conditions: recombinant CYP2C8, pH 7.4
From the text: as §2

[3] = Permeability in Caco-2 cells; format: in vitro ADME; conditions: human, Caco-2, pH 6.5, 37° C.; for Papp A→B at 60 min: apical to basolateral, read-out: Permeability A-B (pH 6.5/7.4); for Papp B→A at 40 min: basolateral to apical, read-out: Permeability B-A (pH 6.5/7.4)
Description: Permeability tests were performed using Caco-2 cells, a colorectal epithelial adenocarcinoma cell line. These cells resemble intestinal epithelial cells in some aspects, such as the formation of a polarized monolayer, a well-defined brush border on the apical surface, and intercellular junctions.
The test is performed in both directions [apical to basolateral (A-B) and basolateral to apical (B-A)] through the cell monolayer, allowing an efflux ratio that provides an indicator as to whether a compound undergoes active efflux. Particle detection was performed with HPLC-MS/MS (mass spectrometry) according to the calculation of the peak area of the result. MS/MS was performed by combining two mass detectors in a single instrument.
A-B permeability was performed at pH 6.5/7.4 with incubation time of 0 and 60 minutes at 37° C. and B-A permeability was performed at pH 6.5/7.4 with incubation time of 0 and 40 minutes at 37° C.

human hepatocytes = experiment: Intrinsic clearance in cryopreserved human hepatocytes; format: in vitro ADME
Description: as §1

[4] = system: mouse hepatocytes (CD-1 males); experiment: Intrinsic clearance in cryopreserved mouse hepatocytes; format: in vitro ADME
Description: as §1

[5] = Water solubility (shake-flask, PBS pH 7.4); format: physicochemical; conditions: aqueous buffer, thermodynamic from solid
Description: In addition, chromatographic purity (%) was defined as the calculation of the main peak area relative to the calculation of the peak area integrate of the standard HPLC calibration chromatogram. A standard calibration chromatogram was then generated for each compound tested along with a UV/VIS spectrum with maximal labeled absorbance. The shake-flash technique was used with constant stirring during incubation to keep a uniform medium for 24 hours in PBS at pH 7.4.

[6] = oral, estimated, from literature; cited from earlier work
CYP1A2 = CYP1A2 (Homo sapiens (Human), UniProt P05177); experiment: CYP inhibition, fluorogenic substrate; format: in vitro ADME; parameters: inhibition: dose or concentration left out as unconfirmed; conditions: human, recombinant CYP1A2, pH 7.4
From the text: as §2

[7] = Pharmacokinetics (PK) in rat, I.V. and oral; format: in vivo, Wistar-Han rats; conditions: oral 10 mg/kg; for AUC(0-t): Wistar-Han, plasma
Description: […] The study lasted for 2 weeks (including acclimation time and study), in which the route of administration was made by injection into the caudal vein and oral gavage. The treatment was carried out in a single dose: I.V. group with dose of 1 mg/kg and Oral group with dose of 10 mg/kg. […] Clinical observations were made twice a day (morning and afternoon) in the pre-dose at the 08 time points defined in the protocol. Blood collection was performed after euthanasia in the pre-dose animals at 08 defined time points and at 24 hours post-dose. The pharmacokinetic analysis parameters detected for Group IV were: half-life (t½), drug concentration at time zero (C0), last measurable plasma concentration (AUClast), area under the plasma concentration curve extrapolation percentage (AUC % ext), area under the plasma concentration curve extrapolation to infinity (AUCinf), volume of distribution (Vz), steady state volume of distribution (Vss), clearance (CL) and mean residence time (MRT). The parameters evaluated for the Oral group were: bioavailability (F %), maximum concentration reached (Cmax), time to reach maximum plasma concentration (Tmax), last measurable plasma concentration (AUClast), area under the plasma concentration curve extrapolation percentage (AUC % ext), area under the plasma concentration curve extrapolation to infinity (AUCinf), area under the plasma concentration curve extrapolation to infinity versus dose (AUCinf/Dose), half-Life (t½), and mean residence time (MRT).

melatonin receptors = conditions: Depreux et al. 1994; cited from earlier work

Sequence of CYP2C8 (P10632 whole entry): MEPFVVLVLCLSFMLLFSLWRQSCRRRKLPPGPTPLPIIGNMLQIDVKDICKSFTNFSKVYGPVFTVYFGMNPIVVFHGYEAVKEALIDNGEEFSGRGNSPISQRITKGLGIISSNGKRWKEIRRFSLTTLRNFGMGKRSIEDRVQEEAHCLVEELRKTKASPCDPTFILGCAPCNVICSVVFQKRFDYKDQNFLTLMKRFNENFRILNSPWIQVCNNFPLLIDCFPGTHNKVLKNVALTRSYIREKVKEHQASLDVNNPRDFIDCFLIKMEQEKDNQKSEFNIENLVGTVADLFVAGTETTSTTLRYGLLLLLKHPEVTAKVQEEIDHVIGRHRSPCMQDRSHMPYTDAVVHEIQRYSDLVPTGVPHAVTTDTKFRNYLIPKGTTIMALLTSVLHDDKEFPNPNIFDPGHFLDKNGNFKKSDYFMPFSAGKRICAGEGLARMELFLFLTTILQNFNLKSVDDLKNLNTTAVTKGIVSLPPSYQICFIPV
Sequence of CYP2C19 (P33261 whole entry): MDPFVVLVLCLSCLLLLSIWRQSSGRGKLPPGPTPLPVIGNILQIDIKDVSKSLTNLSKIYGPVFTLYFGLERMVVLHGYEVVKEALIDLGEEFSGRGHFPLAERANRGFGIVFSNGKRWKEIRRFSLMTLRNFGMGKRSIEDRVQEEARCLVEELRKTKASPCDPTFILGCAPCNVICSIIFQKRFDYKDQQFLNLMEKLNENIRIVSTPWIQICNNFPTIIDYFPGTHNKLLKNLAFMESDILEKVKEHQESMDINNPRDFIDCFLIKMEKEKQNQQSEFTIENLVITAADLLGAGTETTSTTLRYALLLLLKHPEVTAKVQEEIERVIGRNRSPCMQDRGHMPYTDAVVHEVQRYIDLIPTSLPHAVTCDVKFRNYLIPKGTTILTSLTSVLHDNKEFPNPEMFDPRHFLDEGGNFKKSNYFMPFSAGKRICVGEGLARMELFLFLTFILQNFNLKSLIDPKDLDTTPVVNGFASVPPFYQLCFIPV
Sequence of CYP2B6 (P20813 whole entry): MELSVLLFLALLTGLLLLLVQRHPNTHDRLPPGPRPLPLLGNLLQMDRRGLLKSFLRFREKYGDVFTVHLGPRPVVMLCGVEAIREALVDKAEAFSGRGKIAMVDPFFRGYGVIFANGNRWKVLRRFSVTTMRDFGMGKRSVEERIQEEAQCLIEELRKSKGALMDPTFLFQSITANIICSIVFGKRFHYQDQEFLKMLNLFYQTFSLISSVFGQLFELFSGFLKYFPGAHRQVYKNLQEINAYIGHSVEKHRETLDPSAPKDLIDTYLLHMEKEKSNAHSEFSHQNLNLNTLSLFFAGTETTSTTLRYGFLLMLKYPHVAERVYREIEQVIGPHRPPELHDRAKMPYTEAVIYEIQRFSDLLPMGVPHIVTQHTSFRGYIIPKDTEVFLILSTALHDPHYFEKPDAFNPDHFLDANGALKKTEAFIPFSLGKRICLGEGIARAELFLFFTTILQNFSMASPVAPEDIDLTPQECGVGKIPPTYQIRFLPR
Sequence of CYP2C9 (P11712 whole entry): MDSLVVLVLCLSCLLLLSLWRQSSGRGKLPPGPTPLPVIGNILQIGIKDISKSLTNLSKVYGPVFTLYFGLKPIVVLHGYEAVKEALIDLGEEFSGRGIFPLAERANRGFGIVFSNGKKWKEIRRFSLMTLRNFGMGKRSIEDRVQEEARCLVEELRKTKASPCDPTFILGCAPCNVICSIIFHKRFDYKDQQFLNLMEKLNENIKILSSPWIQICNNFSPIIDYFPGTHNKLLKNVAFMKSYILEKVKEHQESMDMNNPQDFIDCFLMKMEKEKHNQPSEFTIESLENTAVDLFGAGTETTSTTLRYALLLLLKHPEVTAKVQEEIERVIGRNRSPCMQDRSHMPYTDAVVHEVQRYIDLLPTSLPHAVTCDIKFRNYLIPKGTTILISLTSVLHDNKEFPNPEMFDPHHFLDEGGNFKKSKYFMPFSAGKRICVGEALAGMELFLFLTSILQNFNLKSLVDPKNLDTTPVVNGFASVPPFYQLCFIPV
Sequence of CYP2D6 (P10635 whole entry): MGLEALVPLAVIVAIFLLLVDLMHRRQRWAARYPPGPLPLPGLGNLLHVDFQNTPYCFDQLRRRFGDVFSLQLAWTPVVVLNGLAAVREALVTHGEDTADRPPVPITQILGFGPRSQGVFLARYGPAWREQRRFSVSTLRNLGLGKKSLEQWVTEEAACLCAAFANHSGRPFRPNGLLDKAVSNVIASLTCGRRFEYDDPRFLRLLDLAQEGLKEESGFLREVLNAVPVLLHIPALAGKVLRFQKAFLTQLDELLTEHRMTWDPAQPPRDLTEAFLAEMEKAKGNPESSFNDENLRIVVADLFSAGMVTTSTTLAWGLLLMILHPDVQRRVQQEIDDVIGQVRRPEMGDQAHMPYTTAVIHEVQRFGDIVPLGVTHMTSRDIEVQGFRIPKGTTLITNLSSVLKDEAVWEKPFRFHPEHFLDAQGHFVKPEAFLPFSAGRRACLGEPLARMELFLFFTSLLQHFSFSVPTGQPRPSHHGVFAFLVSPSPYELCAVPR
Sequence of CYP1A2 (P05177 whole entry): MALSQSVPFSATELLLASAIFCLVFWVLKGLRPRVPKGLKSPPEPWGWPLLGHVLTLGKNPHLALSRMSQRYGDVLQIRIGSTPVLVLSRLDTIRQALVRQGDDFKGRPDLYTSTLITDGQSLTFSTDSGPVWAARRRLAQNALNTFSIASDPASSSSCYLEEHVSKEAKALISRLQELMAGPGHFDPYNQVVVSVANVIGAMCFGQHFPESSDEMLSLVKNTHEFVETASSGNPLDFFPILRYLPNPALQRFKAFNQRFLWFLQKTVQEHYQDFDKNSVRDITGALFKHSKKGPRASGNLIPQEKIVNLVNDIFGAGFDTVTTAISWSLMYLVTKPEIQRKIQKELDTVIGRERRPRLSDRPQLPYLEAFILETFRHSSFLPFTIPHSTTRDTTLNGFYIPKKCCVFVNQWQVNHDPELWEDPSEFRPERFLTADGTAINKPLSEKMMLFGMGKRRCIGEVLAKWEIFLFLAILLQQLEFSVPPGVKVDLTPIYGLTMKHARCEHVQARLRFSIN

| Compound | pKa [1] | Intrinsic clearance half-life, Rat Sprague-Dawley [2] [h] | inhibition (CYP2B6) [%] | inhibition (CYP2C19) [%] | inhibition (CYP2C9) [%] | inhibition (CYP2D6) [%] | inhibition (CYP2C8) [%] | Papp A→B at 60 min [3] [nm/s] | Papp B→A at 40 min [3] [nm/s] | Intrinsic clearance half-life, Human (human hepatocytes) [h] | Intrinsic clearance half-life, Mouse CD-1 [4] [h] | solubility at 24 h [5] [µM] | absolute bioavailability [6] [%] | inhibition (CYP1A2) [%] | AUC(0-t) [7] [µg·h/mL] | AUClast [7] [µg·h/mL] | affinity, times lower than melatonin affinity (melatonin receptors) |
| --- | --- | --- | --- | --- | --- | --- | --- | --- | --- | --- | --- | --- | --- | --- | --- | --- | --- |
| c1ccc2[nH]cnc2c1 [unsubstituted benzimidazole, benzimidazole] | above 6 |  |  |  |  |  |  |  |  |  |  |  |  |  |  |  |  |
| CCOc1nc2cc(Cl)c(OC)cc2n1CCCNC(C)=O [IA2-142] |  | >2 | 0.5 | 27.7 | 13 | 6.9 | -4.7 | 340 | 578 | >2 | >2 | 181 (≈ 58.9 µg/mL) |  |  |  |  |  |
| CCC(=O)NCC[C@@H]1CCc2ccc3c(c21)CCO3 [ramelteon] |  |  |  |  |  |  |  |  |  |  |  |  | 1.8 |  |  |  |  |
| CCOc1nc2ccc(OC)cc2n1CCCNC(C)=O [IA2-120] |  | 0.883 | 7.9 | 6.4 | 26.7 | -0.3 | 9.1 | 321 | 295 | >2 | >2 | 200 (≈ 58.3 µg/mL) |  |  |  |  |  |
| CCOc1nc2cc(Cl)c(OC)cc2n1CCNC(C)=O [IA2-121] |  | 0.867 | 8.4 | 33.8 | 23.7 | 0.9 | 7 | 582 | 321 | >2 | >2 | 200 (≈ 62.4 µg/mL) |  |  |  |  |  |
| COc1cc2c(cc1Cl)nc(OC)n2CCNC(C)=O [IA2-143] |  | 1.8 | -1.1 | 10 | -9.6 | 0.8 | -13 | 213 | 718 |  |  | 197 (≈ 58.6 µg/mL) |  | 1.4 | 4.05 | 4.049 |  |
| COc1ccc2nc(OC)n(CCCNC(C)=O)c2c1 [IA2-140] |  | >2 | 0.4 | 7.2 | 2.6 | 0.3 | -2.2 | 273 | 551 | >2 | >2 | 197 (≈ 54.7 µg/mL) |  | -0.7 | 2.44 |  |  |
| COc1ccc2ncn(CCNC(C)=O)c2c1 [N-[2-(6-methoxybenzimidazol-1-yl)-ethyl]acetamide] |  |  |  |  |  |  |  |  |  |  |  |  |  |  |  |  | approximately 3,200 times |
